Measured values: patent publication US20140023611A1 (priority 2010, published 2014)
pIC50: −log10 of the molar value.

Assays:
[1] = test system: Uptake of Phosphorus from the Intestine; assay: In vivo co-dosing in chow (urine P out / P consumed); settings: Rattus norvegicus, feed or water, rats, compound in chow, read-out: Mean % inhibition Urine Pout/P consumed; for inhibition in vivo at 100 mg/kg/day: mean drug dose 100 mg/kg/day
From the text: Male, 7-week-old Sprague-Dawley rats (Charles-River laboratories international, Hollister, Calif.) were allowed to acclimate for a minimum of 3 days. The experiment was initiated by switching animals to a synthetic diet (0.6% phosphorus and 0.6% calcium, Harlan Teklad TD.84122) for four days. After this time, the animals were placed into metabolic cages for daily monitoring of food and water consumption, as well as urine and fecal collections. Test compounds were incorporated into the powdered diet listed above containing 3% chocolate flavoring (w/w, BioServ #7345) at 1.3 mg test compound per gram of diet to achieve an average daily nominal dose of 100 mg/kg/day. The actual dose received by each animal was later determined by measuring prepared diet consumption and body weight. Urine samples were collected in three daily periods from 24-48, 48-72, and 72-96 hours of drug dosing. Averaging these three 24 h periods allows for the more representative measurements of urination, fecal excretion, food consumption and water uptake for each animal. Phosphorus levels in the urine were determined by anion exchange chromatography using a Dionex ICS-3000 ion chromatography system. Urine samples were diluted 1:500 or 1:1000 and injected onto an IonPac AS18 analytical column (2×250 mm) using a potassium hydroxide eluent. Elution of urine phosphate ions was monitored via conductivity detector and reported as ppm relative to a standard ion solution containing phosphate. Daily urinary P output relative to the P consumed in the prepared diet for each animal was calculated. The percentage inhibition of phosphorus absorption was estimated by determining the reduction of this ratio compared to the control group (animals with no drug in chow). The differences between the means of control and treated groups were evaluated by t tests. In all experiments, one group was always included that had Renvela powder blended into their chow at 0.9% targeting a dose of 750 mg/kg.

[2] = Determination of compound Cmax and AUC after oral gavage (plasma LC-MS/MS); format: in vivo, Sprague-Dawley rats; settings: Sprague-Dawley, rat, plasma, po, Structure (I) examples, Table 15, actual oral dose 3-15 mg/kg, plasma 0.5-4 h
Outline: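 Sprague-Dawley rats dosed by oral gavage at nominal 2.5 or 10 mg/kg; blood drawn at 0.5, 1, 2 and 4 h into K2EDTA. Plasma protein-precipitated with acetonitrile plus internal standard and analysed by LC-MS/MS against a plasma standard curve to derive Cmax and AUC.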

rat NaP2b (SLC34A2) = biological target: T1, rat NaP2b (SLC34A2) (Rattus norvegicus, UniProt Q9JJ09); assay: Inhibition of NaP2b-mediated Pi (33P) uptake in transfected HEK293 cells, rat NaP2b; format: cell-based; settings: 33P Pi uptake, 0.1 mM phosphate, value given as pIC50 range
T1 construct: host or cells: HEK293
T1 sequence (Q9JJ09 1-695): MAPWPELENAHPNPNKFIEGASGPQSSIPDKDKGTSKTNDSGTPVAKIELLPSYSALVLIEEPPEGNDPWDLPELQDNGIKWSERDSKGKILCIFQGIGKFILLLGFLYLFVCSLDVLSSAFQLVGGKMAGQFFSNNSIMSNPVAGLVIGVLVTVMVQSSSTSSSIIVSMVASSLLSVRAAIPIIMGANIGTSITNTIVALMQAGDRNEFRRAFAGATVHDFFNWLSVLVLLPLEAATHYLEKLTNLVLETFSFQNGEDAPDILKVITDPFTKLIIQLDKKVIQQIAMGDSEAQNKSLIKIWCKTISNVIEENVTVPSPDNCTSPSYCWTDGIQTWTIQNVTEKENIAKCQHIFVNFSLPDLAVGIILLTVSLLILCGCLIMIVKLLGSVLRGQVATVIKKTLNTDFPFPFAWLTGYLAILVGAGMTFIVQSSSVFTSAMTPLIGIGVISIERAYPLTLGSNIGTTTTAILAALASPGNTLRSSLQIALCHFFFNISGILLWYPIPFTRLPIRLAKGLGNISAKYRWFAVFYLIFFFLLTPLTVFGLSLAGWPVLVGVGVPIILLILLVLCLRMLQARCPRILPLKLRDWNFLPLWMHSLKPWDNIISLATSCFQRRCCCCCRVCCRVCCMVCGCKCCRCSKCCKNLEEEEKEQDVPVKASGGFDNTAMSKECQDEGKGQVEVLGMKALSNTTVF
Outline: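 HEK293 cells were transiently transfected with NaP2b cDNA using Lipofectamine and grown near confluence. Compounds were tested at twelve concentrations from 0.1 nM to 30 uM in duplicate, and 33P-phosphate uptake was counted by scintillation after lysis. Results are expressed as pIC50.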

human NaP2b (SLC34A2) = biological target: T2, human NaP2b (SLC34A2) (Homo sapiens, UniProt O95436); assay: Inhibition of NaP2b-mediated Pi (33P) uptake in transfected HEK293 cells, human NaP2b; format: cell-based; settings: read-out: pIC50 range for human NaP2b (converted)
T2 construct: host or cells: HEK293
T2 sequence (O95436 1-690): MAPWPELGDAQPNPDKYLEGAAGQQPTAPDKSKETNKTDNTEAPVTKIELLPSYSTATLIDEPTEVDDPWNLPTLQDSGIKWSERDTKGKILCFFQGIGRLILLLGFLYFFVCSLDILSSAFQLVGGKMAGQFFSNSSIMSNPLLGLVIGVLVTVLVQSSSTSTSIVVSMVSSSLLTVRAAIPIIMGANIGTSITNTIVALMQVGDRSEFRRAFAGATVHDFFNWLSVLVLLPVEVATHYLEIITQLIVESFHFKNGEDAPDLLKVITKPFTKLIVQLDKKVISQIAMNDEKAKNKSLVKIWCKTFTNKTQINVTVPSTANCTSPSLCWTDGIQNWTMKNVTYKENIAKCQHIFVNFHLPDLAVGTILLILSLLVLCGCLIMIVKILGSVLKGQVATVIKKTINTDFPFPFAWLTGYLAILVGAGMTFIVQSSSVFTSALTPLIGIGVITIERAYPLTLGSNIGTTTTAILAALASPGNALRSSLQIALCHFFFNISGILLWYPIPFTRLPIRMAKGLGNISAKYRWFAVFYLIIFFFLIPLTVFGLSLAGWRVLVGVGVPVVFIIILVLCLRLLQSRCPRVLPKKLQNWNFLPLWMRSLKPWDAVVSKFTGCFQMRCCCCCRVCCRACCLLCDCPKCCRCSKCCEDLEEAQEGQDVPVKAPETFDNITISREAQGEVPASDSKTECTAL
Outline: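 HEK293 cells transiently transfected with human NaP2b (Thr inserted after residue 37, N39D), endogenous PiT transport pharmacologically silenced. Sodium or choline buffer, pH 7.4, with 100 uM KH2PO4, 33P orthophosphate and compound (0.1 nM–30 uM, twelve concentrations, duplicate). 3-30 min at room temperature, scintillation counting, pIC50 derived.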

[3] = Stability of compounds in simulated gastric fluid (SGF); format: in vitro ADME; settings: simulated gastric fluid (3 mg/mL pepsin), incubation time 6 hr, relative to t=0
Outline: (§1)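 Compounds at […] were incubated 3 or 6 hr in USP simulated gastric fluid with 3 mg/mL pepsin or simulated intestinal fluid with 3 mg/mL pancreatin. Remaining compound was quantified by HPLC-UV or HPLC-MS peak area % and reported as percent of the t=0 level in the same medium.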

[4] = Stability of compounds in simulated intestinal fluid (SIF); format: in vitro ADME; settings: simulated intestinal fluid (3 mg/mL pancreatin), incubation time 6 hr, relative to t=0
Outline: as §1

AUC [2] [ng·h/mL] | Cmax [2] [ng/mL] | pIC50 (rat NaP2b (SLC34A2)) | IC50 (human NaP2b (SLC34A2)) [nM] | % remaining, SGF [3] [%] | % remaining, SIF [4] | SMILES | inhibition in vivo at 74 mg/kg/day ([1]; mean drug dose 74 mg/kg/day) [%] | inhibition in vivo at 100 mg/kg/day [1] [%] | inhibition in vivo at 90 mg/kg/day ([1]; mean drug dose 90 mg/kg/day) [%] | inhibition in vivo at 130 mg/kg/day ([1]; mean drug dose 130 mg/kg/day) [%]
– | – | 5.10 to 6.00 | < 1000 | >80 | 60-80% | CCN(CC)c1ccc(NC(=O)c2cccc(CSCCOCCOCCOCCOCCC(=O)N(CCO)CCO)c2)c(-c2cc(C(=O)NCc3cccc(C(F)(F)F)c3)ccn2)c1 [Example 164, 2-(5-(diethylamino)-2-(3-(20-hydroxy-18-(2-hydroxyethyl)-17-oxo-5,8,11,14-tetraoxa-2-thia-18-azaicosyl)benzamido)phenyl)-N-(3-(trifluoromethyl)benzyl)isonicotinamide] | – | ≤ 10 | – | –
< 10 | < 10 | > 6.00 | < 1000 | >80 | >80% | COCCNC(=O)[C@H]1CCCN(C(=O)c2cccc(C(=O)Nc3ccc(N4CCCCC4)cc3-c3cc(C(=O)N[C@H]4CCCc5ccccc54)ccn3)c2)C1 [Example 254, 2-(2-(3-((S)-3-(2-methoxyethylcarbamoyl)piperidine-1-carbonyl)benzamido)-5-(piperidin-1-yl)phenyl)-N—((S)-1,2,3,4-tetrahydronaphthalen-1-yl)isonicotinamide] | – | – | – | –
< 10 | < 10 | 5.10 to 6.00 | – | >80 | >80% | CCN(CC)c1ccc(NC(=O)c2cccc(C(=O)N(C)CCN3CCN(CCOCCOCCOCCOCCOCCOCCOC)C(=O)C3)c2)c(-c2cc(C(=O)N[C@H]3CCCc4ccccc43)ccn2)c1 [Example 327, (S)—N1-(2-(4-(2,5,8,11,14,17,20-heptaoxadocosan-22-yl)-3-oxopiperazin-1-yl)ethyl)-N3-(4-(diethylamino)-2-(4-(1,2,3,4-tetrahydronaphthalen-1-ylcarbamoyl)pyridin-2-yl)phenyl)-N1-methylisophthalamide] | – | 10 to 30 | – | –

The next lines start with the compound.

SMILES | AUC [2] [ng·h/mL] | Cmax [2] [ng/mL] | pIC50 (rat NaP2b (SLC34A2)) | IC50 (human NaP2b (SLC34A2)) [nM] | % remaining, SGF [3] [%] | % remaining, SIF [4] | inhibition in vivo at 74 mg/kg/day ([1]; mean drug dose 74 mg/kg/day) [%] | inhibition in vivo at 100 mg/kg/day [1] [%] | inhibition in vivo at 90 mg/kg/day ([1]; mean drug dose 90 mg/kg/day) [%] | inhibition in vivo at 130 mg/kg/day ([1]; mean drug dose 130 mg/kg/day) [%]
CCN(CC)c1ccc(NC(=O)c2cccc(C(=O)N(C)CCN3CCOCC3)c2)c(-c2cc(C(=O)NCc3cccc(C(F)(F)F)c3)ccn2)c1 [Example 25] | < 30 | < 30 | – | – | – | – | 10 to 30 | – | – | –
CCN(CC)c1ccc(NC(=O)c2cccc(CSCCOCCOCCOCCOCCC(=O)NC(CO)(CO)CO)c2)c(-c2cc(C(=O)NCc3cccc(C(F)(F)F)c3)ccn2)c1 [Example 163, 2-(5-(diethylamino)-2-(3-(20-hydroxy-19,19-bis(hydroxymethyl)-17-oxo-5,8,11,14-tetraoxa-2-thia-18-azaicosyl)benzamido)phenyl)-N-(3-(trifluoromethyl)benzyl)isonicotinamide] | – | – | 5.10 to 6.00 | 1000 to 7940 | >80 | 60-80% | – | ≤ 10 | – | –
CCN(CC)c1ccc(NC(=O)c2cccc(COCCOCCOCCOCCOCCOCCOCCOCCOC)c2)c(-c2cc(C(=O)NCc3cccc(C(F)(F)F)c3)ccn2)c1 [Example 173, 2-(2-(3-2,5,8,11,14,17,20,23,26-nonaoxaheptacosylbenzamido)-5-(diethylamino)phenyl)-N-(3-(trifluoromethyl)benzyl)isonicotinamide] | – | – | > 6.00 | < 1000 | >80 | >80% | – | – | ≤ 10 | –
CN(CCOCCOCCOCCC(=O)O)C(=O)c1cccc(C(=O)Nc2ccc(Cl)cc2-c2cc(C(=O)N[C@H]3CCCc4ccccc43)ccn2)c1 [Example 237, (S)-1-(3-(4-chloro-2-(4-(1,2,3,4-tetrahydronaphthalen-1-ylcarbamoyl)pyridin-2-yl)phenylcarbamoyl)phenyl)-2-methyl-1-oxo-5,8,11-trioxa-2-azatetradecan-14-oic acid] | – | – | 5.10 to 6.00 | – | >80 | >80% | – | – | – | ≤ 10
CCN(CC)c1ccc(NC(=O)c2cccc(CCCOCCOCCOCCOCCC(=O)NC(CO)(CO)CO)c2)c(-c2cc(C(=O)NCc3cccc(C(F)(F)F)c3)ccn2)c1 [Example 281] | < 10 | < 10 | > 6.00 | < 1000 | >80 | 20-40% | – | – | – | –
CCN(CC)c1ccc(NC(=O)c2cccc(C(=O)N(C)CCN(C)CCOCCOCCOCCNC(=O)OC(C)(C)C)c2)c(-c2cc(C(=O)N[C@H]3CCCc4ccccc43)ccn2)c1 [Example 339, (S)-tert-Butyl 1-(3-(4-(diethylamino)-2-(4-(1,2,3,4-tetrahydronaphthalen-1-ylcarbamoyl)pyridin-2-yl)phenylcarbamoyl)phenyl)-2,5-dimethyl-1-oxo-8,11,14-trioxa-2,5-diazahexadecan-16-ylcarbamate] | < 30 | < 10 | > 6.00 | < 1000 | <20 | >80% | – | – | – | –
